“Also recorded” adds a separate entry of the source.
Key:
OT1 CD8 T cells [1] = experiment: ATAC sequencing of OT1 CD8 T cells; format: cell-based, mouse; details: ATAC-seq after 3 days of culture; vs DMSO
From the text: Mechanistically, it was hypothesized by the inventors that epigenetic processes might underlie the observed long-term memory phenotype and anti-tumor activity upon metabolic intervention with MPCi. […] Since acetyl-CoA is the acetyl donor for the acetylation of proteins, amongst which also histones, histone post-translational modifications were examined that are known to make chromatin accessible to transcription factors, a characteristic of memory T cells. […] These are marks known to open chromatin and make it accessible for transcription factor docking. […] Amongst those were Sell, Tcf7 and Ccr7, thereby correlating accessible chromatin with increased mRNA copies (FIG. 3E and see above).
After 3 days of OT1 CD8 T cell culture, 5×10^4 cells were collected and transposed as described before (Buenrostro et al, Transposition of native chromatin for multimodal regulatory analysis and personal epigenomics. Nat Methods. 2013 December; 10(12): 1213-1218.). Amplified transposed fragments were sequenced on an Illumina HiSeq platform.
Computations of the analysis were performed at the Vital-IT Center for high-performance computing of the SIB Swiss Institute of Bioinformatics. Sequencing reads contained in fastq files were aligned to the Mouse mm10 reference genome using Bowtie2 v.2.3.4.1, and alignment files were manipulated with samtools v.1.8. Peak calling was performed with Macs2 v.2.1.1. […]

OT1 CD8 T cells [2] = experiment: In vitro activation of OT1 splenocytes with N4 peptide and IL-2, CD62L by flow cytometry; format: cell-based, mouse
Protocol: To evaluate the effects of MPC inhibition on T cell differentiation, OT1 splenocytes were cultured in the presence of 1 μg/ml ovalbumin-derived N4 (SIINFEKL) peptide, 100 IU/ml recombinant human IL-2 (rhIL-2) and the MPC inhibitor (MPCi) UK5099 at 75 μM or control DMSO for 3 days. The inhibitor or DMSO was then washed away and the cells were cultured for 4 more days in the presence of 100 IU/ml IL-2 and 10 ng/ml rhIL-7 (FIG. 1A). […] Thus, the increase in the memory markers upon MPCi in vitro treatment occurs at the transcriptional level.
OT1 splenocytes were cultured for 3 days at a concentration of 10^6 cells per mL in RPMI medium (Gibco 61870-01) supplemented with 10% FBS, (Gibco 10270-106), 1% Penicillin/Streptomycin (Gibco 15070-063), 50 μM β-mercaptoethanol, 1% HEPES (Gibco 15630-080), 1× Non-essential amino acids (Gibco 11140-035), 1% L-glutamine (Gibco 25030-081), 1 mM Sodium Pyruvate (Gibco 11360-039). Cells were additionally supplemented with hIL-2 100 U/ml (Glaxo-IMB), ovalbumin N4 peptide (SIINFEKL) 1 μg/ml and either with 75 μM UK5099 (Sigma Aldrich) or with their solvent DMSO as a control. At day 3, splenocytes were collected, washed and split, and cells were cultured for 4 additional days with 100 U/ml hIL-2 and hIL-7 (Peprotech 200-07) supplemented either with 75 μM UK5099 (Sigma Aldrich) or DMSO. […]

[3] = tested on: transferred OT1 CD8 T cells; ovalbumine-expressing B16 melanoma; experiment: Vaccination model with UK5099 as vaccine adjuvant, then B16 melanoma challenge; format: in vivo, mouse; details: vs DMSO; for control of B16 tumor growth after challenge: 0.5 mg s.c. at d0 and d2, B16 challenge 40 days post-vaccination, tumor growth and weight
From the text: One of the main goals of preventive and therapeutic vaccination in the context of pathogen infection and cancer is the establishment of a potent memory CD8 T cell pool. Since it was observed that MPC inhibition during in vitro priming of antigen-specific CD8 T cells increases their memory formation, it was investigated whether the MPCi could be used as a vaccine adjuvant. 10^5 naïve OT1 CD8 T cells were […] in healthy mice and the mice were subsequently vaccinated by a subcutaneous injection of 50 μg CpG and 10 μg SIINFEKL containing additionally 0.5 mg UK5099 or and equal volume of DMSO as control. 48 hours later, the mice received another subcutaneous injection of 0.5 mg UK5099 or and equal volume of DMSO (FIG. 4A). […] It was investigated whether this would render them better prepared for a subsequent antigen challenge, and injected 10^5 ovalbumine-expressing B16 melanoma cells s.c. in the flank of the mice at 40 days post-vaccination (FIG. 4A).
Naïve CD8 T cells were isolated from OT1 spleens (negative selection, Stem Cell Technologies). 1×10^5 T cells were i.v. transferred in WT C57BL/6 mice, followed by a subcutaneous injection of the vaccine, consisting of 10 μg SIINFEKL peptide, 50 μg CpG and 0.5 mg UK5099 or DMSO diluted in a total of 100 μl PBS per mouse. 2 days post-vaccination, mice received a second dose of s.c. 0.5 mg UK5099 or DMSO. After 2 weeks, blood was collected from the tail vein and analyzed by flow cytometry. 40 days post-vaccination, mice were challenged by an s.c. injection of 1×10^5 SIINFEKL-expressing B16 melanoma cells. 17 days later, mice were sacrificed and the tumor was dissected.

## N#CC(=Cc1cn(-c2ccccc2)c2ccccc12)C(=O)O [UK5099, 2-cyano-3-(1-phenyl-1H-indol-3-yl)-2-propenoic acid]
OT1 CD8 T cells [1]
  genes associated with more accessible chromatin: 981 genes
OT1 CD8 T cells [2]; 75 μM d0-d3, then washed away, flow cytometry day 7, compared to DMSO
  surface expression of the central memory marker CD62L: strong increase
OT1 CD8 T cells [2]; MPCi treatment continued between d3 and d7
  surface CD62L expression at day 7, continued treatment: even more pronounced than a d0-d3 treatment only
[3]
  control of B16 tumor growth after challenge: protects against tumor growth
[3]; listed as MPCi
  control of B16 tumor growth after challenge: much better in controlling the tumor growth
[3]; 0.5 mg s.c. at d0 and d2 with CpG and SIINFEKL, blood 14 days after vaccination
  proportion of transferred OT1 CD8 T cells that formed memory precursor cells: drives a memory phenotype; also recorded: increased proportion

Source: patent US20230302131A1, “MPC INHIBITION FOR PRODUCING T-CELLS WITH A MEMORY PHENOTYPE” (UNIVERSITÉ DE LAUSANNE, priority 2020, published 2023)
